Columns and labels:
[1] = tested on: mouse leukemia L1210; assay: Antitumor activity test on mouse leukemia L1210 in vivo; settings: for max (T/C): L1210, average survival time treated/control ×100, i.p. once a day for 5 days; for Opt. dose: L1210, dose giving max (T/C); for Opt. dose / LD50: i.p. once a day for 5 days; for LD50: L1210-bearing CDF1 mice
Protocol: Mice of compound-non-treated group (control group) were administered with physiological saline solution in the same manner. The average survival times of the compound-treated group and the control group (abbreviated as T and C, respectively) were measured and T/C percentage (T/C×100) was calculated from the following equation. [formula]
In Table 4, max (T/C) means the maximum value of T/C and optimum dose (opt. dose) means an administration amount giving the max namely, an optimum administration amount.

[2] = tested on: mouse colon cancer (colon 26) cells; assay: Antitumor activity test in vivo, colon 26
Protocol: (§1) 1×10^6 mouse leukemia P388 cells were inoculated into the abdominal cavities of 6-week-old female CDF1 mice, and from the next day a compound No. 15 was administered to them intraperitoneally once a day for 5 consecutive days. Separately, 1×10^6 mouse lung cancer Lewis lung carcinoma (LL) cells were inoculated into the abdominal cavities of male BDFl mice, and from the next day a compound No. 15 was administered to them intraperitoneally once a day for 5 consecutive days. Separately, 1×10^6 mouse fibrosarcoma M5076 cells were inoculated into the body sides of female C57BL/6 mice subcutaneously, and from the next day a compound No. 15 was administered to them intraperitoneally. Separately, 1×10^6 mouse colon cancer (colon 26) cells were inoculated into the abdominal cavities of female CDF1 mice, and from the next day a compound No. 15 was administered to them intraperitoneally. To respective control groups (compound-non-treated groups), physiological saline solution was administered.
(§2) From the survival times of the compound-treated group and the control group, respective median values (median survival times) were calculated. Using these values, T/C percentage was calculated from the following equation. [formula]

[3] = tested on: mouse fibrosarcoma M5076 cells; assay: Antitumor activity test in vivo, fibrosarcoma M5076; settings: M5076 inoculated s.c., i.p. administration
Protocol: as §1, §2

[4] = tested on: mouse leukemia L1210 cells; assay: Growth inhibition test on cultured mouse leukemia L1210 cells; assay type: cell-based; settings: RPMI 1640 with 10% fetal calf serum
Protocol: Mouse leukemia L1210 cells were cultured in a RPMI 1640 medium containing 10% of fetal calf serum.

[5] = tested on: mouse lung cancer Lewis lung carcinoma (LL) cells; assay: Antitumor activity test in vivo, Lewis lung carcinoma (LL); settings: i.p. once a day for 5 days; for Max (T/C): median survival time
Protocol: as §1, §2

[6] = tested on: cis-Platin resistant mouse leukemia L1210 cells; assay: Growth inhibition test on cis-Platin resistant L1210 tumor cells; assay type: cell-based; settings: ratio of IC50 on cis-Platin resistant to non-resistant L1210 cells
Excerpt: (§3) 1×10^5 mouse leukemia L1210 cells or 1×10^5 mouse leukemia P388 cells were inoculated into the abdominal cavities of CDF1 female mouse. […] After 5 days, their tumor cells were inoculated to the abdominal cavities of other CDF1 female mouse, and the same treatment was applied.

[7] = tested on: mouse leukemia P388 cells; assay: Antitumor activity test in vivo, mouse leukemia P388; settings: for Opt. dose: P388, i.p. once a day for 5 days; for Max (T/C): P388, median survival time, i.p. once a day for 5 days
Protocol: as §1, §2

[8] = tested on: cis-Platin resistant mouse leukemia P388 cells; assay: Growth inhibition test on cis-Platin resistant P388 tumor cells; assay type: cell-based; settings: ratio of IC50 on cis-Platin resistant to non-resistant P388 cells
Excerpt: as §3

[9] = Test for renal toxicity; settings: mouse, in vivo
Protocol: A compound was administered one time to 6-week-old male CDFl mice intraperitoneally. After 4 days, their blood was collected for measurement of blood urea nitrogen concentration (BUN value).
In Table 6, body weight ratio is a ratio of body weight after 4 days from administration to body weight of administration day.

[10] = tested on: various tumor cells; assay: Antitumor activity on various tumors (general statement); assay type: in vivo, mouse; settings: in words
Protocol: as §1, §2

[11] = rate, in words; prior art; cited from earlier work

Row | SMILES | max (T/C) [1] [%] | Opt. dose [1] [mg/kg] | LD50 [1] [mg/kg] | IC50 [4] [µg/mL] | Solubility in water [µg/mL] | further results
1 | CC1CC[NH2+][Pt-2]2([NH2+]C1)[O]C(=O)C1(CCC1)C(=O)[O]2 (racemic) [Compound No. 15, cis-Cyclobutane-1,1-dicarboxylato-2-methyl-1,4-butanediamine platinum] | 182 | 32 | 80.0 | 1.20 | > 8000 | Opt. dose ([2]; Colon 26, i.p. administration): 32 mg/kg; Max (T/C) ([2]; Colon 26, median survival time, i.p. administration): 198%; Opt. dose [3]: 16 mg/kg; Max (T/C) ([3]; median survival time): 152%; Opt. dose [5]: 32 mg/kg; Max (T/C) [5]: 222%; IC50 R/IC50, Tumor cell L1210 [6]: 3.19; Opt. dose [7]: 32 mg/kg; Max (T/C) [7]: 260%; IC50 R/IC50, Tumor cell P388 [8]: 3.26
2 | C[C@@H](CN)CCN.O=C([O-])C1(C(=O)[O-])CCC1.[Pt+2] (stereo in doubt) [15R, cis-cyclobutane-1,1-dicarboxylato-R-2-methyl-1,4-butanediamine platinum] | 189 | 32 | 33.6 | 0.78 | > 15000 | Opt. dose [5]: 30 mg/kg; Max (T/C) [5]: 166%; renal toxicity [9]: very low renal toxicity; antitumor effect [10]: excellent antitumor activities on various tumor cells; Opt. dose [7]: 20 mg/kg; Max (T/C) [7]: 253%
3 | C[C@H]1CC[NH2+][Pt-2]2([NH2+]C1)[O]C(=O)C1(CCC1)C(=O)[O]2 [15S, cis-cyclobutane-1,1-dicarboxylato-S-2-methyl-1,4-butanediamine platinum] | 206 | 32 | 48.0 | 1.08 | > 15000 | Opt. dose [5]: 50 mg/kg; Max (T/C) [5]: 164%; renal toxicity [9]: very low renal toxicity; antitumor effect [10]: excellent antitumor activities on various tumor cells; Opt. dose [7]: 40 mg/kg; Max (T/C) [7]: 253%
4 | [Cl][Pt-2]1([Cl])[NH2+]CCCC[NH2+]1 [Compound No. 1, cis-Dichloro-1,4-butanediamine platinum] | 203 | 2 | 4.8 | 0.33 | – | Solubility in physiological saline solution: > 2 mg/ml
5 | O=C1[O][Pt-2]2([NH2+]CCCC[NH2+]2)[O]C(=O)C12CCOCC2 [Compound No. 3, cis-4-Oxacyclohexane-1,1-dicarboxylato-1,4-butanediamine platinum] | 132 | 8 | 8.4 | 0.65 | > 10000 | –
6 | CCC(N)CCCN.O=C([O-])C1(C(=O)[O-])CCC1.[Pt+2] [Compound No. 11, cis-Cyclobutane-1,1-dicarboxylato-1-ethyl-1,4-butanediamine platinum] | 139 | 64 | – | 4.70 | > 3000 | –
7 | CC1(C)CC[NH2+][Pt-2]([Cl])([Cl])[NH2+]C1 [Compound No. 19, cis-Dichloro-2,2-dimethyl-1,4-butanediamine platinum] | 359 | 4 | 6.0 | 0.20 | – | Solubility in physiological saline solution: > 2 mg/ml
8 | CC(C)(CN)CCN.O=C([O-])C1(C(=O)[O-])CCC1.[Pt+2] [Compound No. 22, cis-Cyclobutane-1,1-dicarboxylato-2,2-dimethyl-1,4-butanediamine platinum] | 320 | 128 | – | 2.20 | > 3000 | –
9 | CC1(C)CC[NH2+][Pt-2]2([NH2+]C1)[O]C(=O)C1(CCOCC1)C(=O)[O]2 [Compound No. 23, cis-4-Oxacyclohexane-1,1-dicarboxylato-2,2-dimethyl-1,4-butanediamine platinum] | 159 | 32 | – | 0.44 | > 3000 | –
10 | CC1(C)CCC[NH2+][Pt-2]([Cl])([Cl])[NH2+]1 [Compound No. 25, cis-Dichloro-1,1-dimethyl-1,4-butanediamine platinum] | 150 | 2 | 3.0 | 0.25 | – | Solubility in physiological saline solution: > 2 mg/ml
11 | N.N.[Cl][Pt][Cl] [cis-Platin, cis-dichlorodiammineplatinum, reference compound] | – | 4 | – | – | – | dissolution in water [11]: dissolving in water slowly

From US4921984A, “Novel platinum complexes” (Nippon Kayaku Kabushiki Kaisha, priority 1985, dated 1990)
